{"source": "patent US6673625B2", "about": "“Saccharide sensing molecules having enhanced fluorescent properties” (The Regents of the University of California, priority 1999, dated 2004)", "key": {"[1]": {"experiment": "Glucose sensitivity testing of chloro-oxazine-one boronate (COB)", "conditions": "glucose zero to 600 mg/dL; 66% MeOH/buffer pH 7.4; 450/560 nm", "method": "To investigate the conjugated organic heterocyclic ring system compounds as fluorophores, an oxazine-one system was studied. An oxazine-one is described as a neutral (uncharged) precursor to a charged oxazine dye. The relevant values for the COB system for the Rehm-Weller equation are: ΔGPET=−12.1 kcal/mole, E^0(Z^ox)=0.88V, E^0(F^red)=−1.10V, and ΔE00=57.8 kcal/mole. The compound's response to glucose in several solvent systems was characterized. A stock solution of the compound was prepared by dissolving 5.7 mg in 5 mL of methanol. Samples were prepared by adding 30 μL of this stock solution to 3 mL of solvent.\nGlucose sensitivity testing was performed on the oxazine-one compound. Samples were prepared as described above and titrated with 30 μL aliquots of concentrated glucose solution (300 mg/mL). […] Following an initial period in which the baseline fluorescence level was determined, four 30 μL aliquots of glucose were introduced into the sample resulting in a final glucose concentration of approximately 1200 mg/dL. In this solvent system, glucose transduction yields a 45% increase in the fluorescence intensity as the glucose concentration is increased from zero to 600 mg/dL.\nCOB's response was evaluated in several solvent systems. […]\nBased on these spectra, excitation and emission wavelengths of 450 nm and 560 nm, respectively, were chosen for subsequent steady-state fluorescence tests. […]"}, "[2]": {"experiment": "Cyclic voltammetry (glassy carbon, Ag/AgCl reference, 0.1 M NBu4ClO4 in acetonitrile)", "type": "physicochemical", "method": "Samples for FT IR spectroscopy were prepared as solutions in CHCl3, and only the C═O stretches are reported. Unless otherwise stated, all NMR spectra were recorded at 500 MHz for ^1H and 125 MHz for ^13C at 20-25° C. using CDCl3 as the solvent. Unless stated otherwise, mass spectra were obtained using electrospray ionization (50 V) with a 50/50 methanol/water solvent mixture with ^1% acetic acid added. Cyclic voltammetry was conducted using a glassy carbon working electrode, platinum counter electrode, and Ag/AgCl reference electrode and carried out in a 0.1 M solution of NBu4ClO4 in acetonitrile.\nSummarized Syntheses. As the syntheses are described as a series of analogous compounds with general procedures are given below. Cyclic voltammetry was conducted using a glassy carbon working electrode, platinum counter electrode, and Ag/AgCl reference electrode and carried out in a 0.1 M solution of NBu4ClO4 in acetonitrile. Samples for fluorescence were prepared as 1.00 mM stock solutions in MeOH. A 30.0 μL aliquot of solution was then added to 3.000 mL of the appropriate solvent mixture (a combination of methanol and phosphate buffered saline—PBS). Relative quantum yields were determined by the relative output of equimolar solutions of two compounds using 3ay as a reference. Glucose additions were performed by the addition of a concentrated solution of glucose in PBS to a stirred solution of the fluorescent molecule in methanol/PBS.\nGeneral. All reactions were performed under an atmosphere of N2, followed by work-up in air. Protected boronate esters were stored under vacuum to prevent slow hydrolysis from atmospheric moisture. Unless stated otherwise, all chemicals were purchased from commercial suppliers. Anhydrous solvents from Aldrich were used for all reactions. Starting compounds known in the art such as N-n-butyl-4-chloronaphthalene-1,8-dicarboximide(1ax), 2,2-dimethylpropane-1,3-diyl[o-(bromomethyl) phenyl]boronate, were prepared by literature methods (see e.g. Daffy et al. Chem-Eur J 1998, 4, 1810-1815; de Silva et al., Chem Rev 1997, 97, 1515-1566). Samples for FT IR spectroscopy were prepared as solutions in CHCl3, and only the C═O stretches are reported here. All mass spectra were obtained using electrospray ionization (ESI/MS) with an ionization potential of 50V and a solvent system consisting of 1% acetic acid in 50/50 methanol/water. Cyclic voltammetry was conducted using a glassy carbon working electrode, platinum counter electrode, and Ag/AgCl reference electrode and carried out in a 0.1 M solution of NBu4ClO4 in acetonitrile. Samples for fluorescence measurements were prepared as 1.00 mM stock solutions in MeOH. A 30.0 μL aliquot of solution was then added to 3.000 mL of the appropriate solvent mixture (a combination of methanol and phosphate buffered saline—PBS) giving a final concentration of 10.0 μM for each complex. Changes in pH were carried out by the addition of small volumes of concentrated hydrochloric acid, acetic acid, or sodium hydroxide. Glucose additions were performed by the addition of a concentrated solution of glucose in PBS to a stirred solution of fluorophore in a cuvette. Relative quantum yield measurements were carried out by measuring the relative intensities of equimolar solutions (10.0 μM) of two fluorophores. Compound 3ay was used as the reference."}, "[3]": {"experiment": "Rehm-Weller estimate of free energy of photoinduced electron transfer (PET)", "type": "physicochemical", "text": "The search for new fluorescent glucose transducers based on photoelectron transfer (PET) requires, among other things, an understanding of the electrochemistry of any potential donor-acceptor pair. The free energy of PET (ΔGel) can be calculated using the Rehm-Weller equation shown below:\nΔGel(kcal mol^−1)=23.06[E^0(D^+/D)−E^0(A/A^−)]−wp−wr−ΔG00 where E^0(D^+/D) is the oxidation potential of the donor, E^0(A/A^−) is the reduction potential of the acceptor, and ΔG00 is the free energy corresponding to the equilibrium energy E00 (see e.g. Kavarnos, G. J. In Fundamentals of photoinduced electron transfer, VCH Publishers: New York, N.Y., 1993; p Chapter 1 and Rehm and Weller, Ist. J. Chem. 1970, 8, 259). The quantities wp and wr are Coulombic terms for the products and reactants, and ate found to be small in polar solvents. To simplify predictions, we assume wp and wr to be zero, and estimate E00 as the energy corresponding to [λmax(ex)+λmax(em)]/2 for each fluorophore.\nΔGPET=23.06[E^0(Z^oxidation)−E^0(F^reduction)]−ΔE00],\nThe electrochemical potentials can be measured using the individual molecular groups before assembling the complete molecule.\nElectrochemistry. The search for new fluorescent glucose transducers based on PET requires, among other things, an understanding of the electrochemistry of any potential donor-acceptor pair. The free energy of PET (ΔGel) can be calculated using the Rehm-Weller equation shown in eq 1, where E^0(D^+/D) is the oxidation potential of the […]\nΔGe(kcal mol^−1)=23.06[E^0(D^+/D)−E^0(A/A^−)]−wp−wr−ΔG00 (1) donor, E^0(A/A^−) is the reduction potential of the acceptor, and ΔG00 is the free energy corresponding to the equilibrium energy E00. The quantities wp and wr are Coulombic terms for the products and reactants, and are found to be small in polar solvents. In our case, wr=0 since the reactants are neutral. To simplify predictions, we assume wp to be zero and estimate E00 as the energy corresponding to [λmax(ex)+λmax(em)]/2 for each fluorophore. […]\nit is possible to estimate the free energy of photoinduced electron transfer (PET) in these systems (see e.g. Kavamos, G. J. Fundamentals of Photoinduced Electron Transfer, VCH: New York, 1993; pp 37-40). E0(D^+/D) and E^0(A/A^−) correspond to the […] of the electron donor (i.e. amine) and electron acceptor (i.e. fluorophore), respectively. The quantity ΔG00, is the equilibrium energy, which we estimate as the energy corresponding to the equilibrium wavelength λ00. As an estimate of λ00, we use the average of the excitation and emission maxima for each fluorophore. Smaller solvent-dependent work terms for the Coulombic interaction between the reactants and products are left out for simplicity. Since the mechanism of fluorescence switching in these systems depends on PET, this gives us a rough estimate of which fluorophores should give the best response to glucose."}}, "data": [{"substance": "6-chloro-5H-benzo[a]phenoxazin-5-one boronate [COB]", "values": [{"measurement": "increase in the fluorescence intensity", "setting": "[1]", "result": 45, "unit": "%"}, {"measurement": "E^0(F^red), reduction potential of the fluorophore", "setting": "[2]", "result": "−1.10", "unit": "V"}, {"measurement": "E^0(Z^ox), oxidation potential of the switch", "setting": "[2]", "result": 0.88, "unit": "V"}, {"measurement": "ΔE00, energy of the excited state fluorophore", "setting": "[3]", "result": 57.8, "unit": "kcal/mol"}, {"measurement": "ΔGPET", "setting": "[3]; simplified Rehm-Weller equation", "result": -12.1, "unit": "kcal/mol"}]}]}
